Consider 17 compounds from patent US5844100A, “Ink compositions containing azo dyes for ink jet printing” (Ilford Imaging Switzerland GmbH, priority 1995, dated 1998).

The structures appear in SMILES notation.

One data set in a line: Absorption maximum (λ max) in H2O.
Conditions: not given
In kind it is physicochemical.
For the compound `COc1cc(N=Nc2cc(S(=O)(=O)O)c3cccc(S(=O)(=O)O)c3c2)c(C)cc1Nc1nc(SCCCS(=O)(=O)O)nc(SCCCS(=O)(=O)O)n1` [Compound 100], the “λ max (nm) in H2O” value amounted to 401 nm.

Regarding `CC(=O)Nc1cc(Nc2nc(SCCCS(=O)(=O)O)nc(SCCCS(=O)(=O)O)n2)ccc1N=Nc1cc(S(=O)(=O)O)c2cccc(S(=O)(=O)O)c2c1` [Compound 102], the “λ max (nm) in H2O” value is 394 nm.

Take `Cc1cc(Nc2nc(SCCCS(=O)(=O)O)nc(SCCCS(=O)(=O)O)n2)ccc1N=Nc1cc(S(=O)(=O)O)c2cccc(S(=O)(=O)O)c2c1` [Compound 103]: the “λ max (nm) in H2O” value was 383 nm.

Turning to `COc1cc(N=Nc2cccc(S(=O)(=O)O)c2)c(C)cc1Nc1nc(SCCCCS(=O)(=O)O)nc(SCCCCS(=O)(=O)O)n1` [Compound 104], the “λ max (nm) in H2O” value is on record as 383 nm.

For `CCCCCC(=O)Nc1cc(S(=O)(=O)O)cc2cc(S(=O)(=O)O)c(N=Nc3cc(Nc4nc(SCCCS(=O)(=O)O)nc(SCCCS(=O)(=O)O)n4)c(OC)cc3S(=O)(=O)O)c(O)c12` [Compound 109], the “λ max (nm) in H2O” value was found to be 530 nm.

Turning to `O=S(=O)(O)CCCSc1nc(Nc2ccc(N=Nc3c(S(=O)(=O)O)cc4cccc(NS(=O)(=O)c5ccc(Br)cc5)c4c3O)c(S(=O)(=O)O)c2)nc(SCCCS(=O)(=O)O)n1` [Compound 111], the “λ max (nm) in H2O” value was 526 nm.

On to `O=C(Nc1cc(S(=O)(=O)O)cc2cc(S(=O)(=O)O)c(N=Nc3cc(Nc4nc(SCCCS(=O)(=O)O)nc(SCCCS(=O)(=O)O)n4)ccc3S(=O)(=O)O)c(O)c12)c1ccccc1` [Compound 112], for which the “λ max (nm) in H2O” value is listed as 512 nm.

Turning to `Cc1ccc(S(=O)(=O)Nc2cc(S(=O)(=O)O)cc3cc(S(=O)(=O)O)c(N=Nc4cc(Nc5nc(SCCCS(=O)(=O)O)nc(SCCCS(=O)(=O)O)n5)ccc4S(=O)(=O)O)c(O)c23)cc1` [Compound 113], the “λ max (nm) in H2O” value is reported as 527 nm.

Take `Cc1ccc(N=Nc2c(S(=O)(=O)O)cc3cc(S(=O)(=O)O)cc(Nc4nc(SCCCS(=O)(=O)O)nc(SCCCS(=O)(=O)O)n4)c3c2O)c(S(=O)(=O)O)c1` [Compound 115]: the “λ max (nm) in H2O” value is 543 nm.

Regarding `COc1ccc(N=Nc2c(S(=O)(=O)O)cc3cc(S(=O)(=O)O)cc(Nc4nc(SCCCS(=O)(=O)O)nc(SCCCS(=O)(=O)O)n4)c3c2O)cc1S(=O)(=O)O` [Compound 116], the “λ max (nm) in H2O” value amounted to 555 nm.

In the case of `Nc1ccc2cc(S(=O)(=O)O)cc(O)c2c1N=Nc1ccc(Nc2nc(SCCCS(=O)(=O)O)nc(SCCCS(=O)(=O)O)n2)cc1S(=O)(=O)O` [Compound 118], the “λ max (nm) in H2O” value amounted to 518 nm.

Turning to `O=C(O)CCNc1ccc2cc(S(=O)(=O)O)cc(O)c2c1N=Nc1ccc(Nc2nc(SCCCS(=O)(=O)O)nc(SCCCS(=O)(=O)O)n2)cc1S(=O)(=O)O` [Compound 119], the “λ max (nm) in H2O” value is 535 nm.

Regarding `Cc1cc(N=Nc2c(Nc3c(C)cccc3C)ccc3cc(S(=O)(=O)O)cc(O)c23)c(S(=O)(=O)O)cc1Nc1nc(SCCCS(=O)(=O)O)nc(SCCCS(=O)(=O)O)n1` [Compound 120], the “λ max (nm) in H2O” value stood at 529 nm.

As to `COc1cc(S(=O)(=O)O)c(N=Nc2c(NCCC#N)ccc3cc(S(=O)(=O)O)cc(O)c23)cc1Nc1nc(SCCCS(=O)(=O)O)nc(SCCCS(=O)(=O)O)n1` [Compound 121], the “λ max (nm) in H2O” value stood at 542 nm.

As to `O=S(=O)(O)CCCSc1nc(Nc2ccc(S(=O)(=O)O)c3cc(S(=O)(=O)O)c(N=Nc4ccc5c(S(=O)(=O)O)cccc5c4S(=O)(=O)O)c(O)c23)nc(SCCCS(=O)(=O)O)n1` [Compound 122], the “λ max (nm) in H2O” value came to 543 nm.

The nature of another data set: Dye solubility in water at 20° C., determined spectroscopically. In kind it is physicochemical. Particulars: heated at 50° C. 1 hour, cooled to 20° C., filtered. Here is the method: The solubilities of the dyes according to the invention were determined as follows:
An excess of dye was heated at 50° C. in water with stirring for one hour. The mixture was then cooled down to 20° C. and filtered, and the dye content of the clear solution was determined spectroscopically.
With `COc1cc(N=Nc2cc(S(=O)(=O)O)c3cccc(S(=O)(=O)O)c3c2)c(C)cc1Nc1nc(SCCCS(=O)(=O)O)nc(SCCCS(=O)(=O)O)n1` [Compound 100], the “Solubility (in g per 100 ml)” value was found to be 34 g per 100 ml.

With `Cc1cc(Nc2nc(SCCCS(=O)(=O)O)nc(SCCCS(=O)(=O)O)n2)ccc1N=Nc1cc(S(=O)(=O)O)c2cccc(S(=O)(=O)O)c2c1` [Compound 103], the “Solubility (in g per 100 ml)” value is listed as 30 g per 100 ml.

In the case of `O=C(Nc1cc(S(=O)(=O)O)cc2cc(S(=O)(=O)O)c(N=Nc3cc(Nc4nc(SCCCS(=O)(=O)O)nc(SCCCS(=O)(=O)O)n4)ccc3S(=O)(=O)O)c(O)c12)c1ccccc1` [Compound 112], the “Solubility (in g per 100 ml)” value worked out at 44 g per 100 ml.

In the case of `Nc1ccc2cc(S(=O)(=O)O)cc(O)c2c1N=Nc1ccc(Nc2nc(SCCCS(=O)(=O)O)nc(SCCCS(=O)(=O)O)n2)cc1S(=O)(=O)O` [Compound 118], the “Solubility (in g per 100 ml)” value amounted to 43 g per 100 ml.

Regarding `COc1cc(N=Nc2c(N)ccc3cc(S(=O)(=O)O)cc(O)c23)c(C)cc1Nc1nc(NCCO)nc(Nc2cccc(S(=O)(=O)O)c2)n1` [dye 1, reference compound], the “Solubility (in g per 100 ml)” value worked out at 11 g per 100 ml.

In the case of `CCCCCCNc1nc(NCCCCCC)nc(Nc2cc(S(=O)(=O)O)cc3cc(S(=O)(=O)O)c(N=Nc4ccccc4S(=O)(=O)O)c(O)c23)n1` [dye 5, reference compound], the “Solubility (in g per 100 ml)” value is reported as 17 g per 100 ml.
